The text below walks through data of patent publication US6727263B2, “Indole and 2,3-dihydroindole derivatives, their preparation and use” (H. Lundbeck A/S, priority 1997, dated 2004).

Where a name gives a salt, the structure may show the parent alone. Read-outs that look alike come from different tables or passages of the source.

In one data set the target is T1, human 5-HT1A receptors (Homo sapiens, UniProt P08908).
T1 construct: expressed in transfected cells; host or cells: HeLa cells (HA7), used as cell homogenate
T1 sequence (P08908 1-422): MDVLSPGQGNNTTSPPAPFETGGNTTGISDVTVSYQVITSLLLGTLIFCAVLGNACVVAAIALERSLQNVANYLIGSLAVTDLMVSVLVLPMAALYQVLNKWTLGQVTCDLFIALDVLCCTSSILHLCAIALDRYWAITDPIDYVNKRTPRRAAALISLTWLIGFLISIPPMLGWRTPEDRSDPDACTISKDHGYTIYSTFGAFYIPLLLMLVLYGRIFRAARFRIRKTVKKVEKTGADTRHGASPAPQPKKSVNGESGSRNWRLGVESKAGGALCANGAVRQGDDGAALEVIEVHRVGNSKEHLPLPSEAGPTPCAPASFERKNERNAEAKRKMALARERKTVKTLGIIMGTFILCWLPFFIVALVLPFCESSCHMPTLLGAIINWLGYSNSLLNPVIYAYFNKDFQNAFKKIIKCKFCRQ
Kind of data set: Inhibition of 3H-5-CT binding to human 5-HT1A receptors. On the procedure: Inhibition of ^3H-5-CT Binding to Human 5-HT1A Receptors
Human 5-HT1A receptors (40 μg of cell homogenate) were incubated for 15 minutes at 37° C. in 50 mM Tris buffer at pH 7.7 in the presence of ^3H-5-CT. Non-specific binding was determined by including 10 μM of metergoline. The reaction was terminated by rapid filtration through Unifilter GF/B filters on a Tomtec Cell Harvester. Filters were counted in a Packard Top Counter.

Data set [1] has as its system 3H-5-HT uptake into whole rat brain synaptosomes. The data set can be described thus: Inhibition of 3H-5-HT uptake into rat brain synaptosomes. The format is biochemical. The note with it: 3H-5-HT accumulation into whole rat brain synaptosomes, in vitro; read-out: Inhibition of serotonin reuptake IC50. The procedure: Inhibition of ^3H-5-HT Uptake Into Rat Brain Synaptosomes
Using this method the ability of drugs to inhibit the accumulation of ^3H-5-HT into whole rat brain synaptosomes is determined in vitro.

The next data set addresses T2, cloned 5-HT1A receptors (Homo sapiens, UniProt P08908).
T2 construct: expressed in transfected cells; host or cells: HeLa cells (HA7)
T2 sequence (P08908 1-422): T1 sequence (P08908 1-422)
Kind of data set: Antagonism of 5-HT induced inhibition of forskolin induced cAMP accumulation. The format is cell-based. The following applies: cloned 5-HT1A receptors in transfected HeLa cells (HA7). The procedure:
The assay was performed as a modification of the method described by Pauwels, P. J et al, Biochem. Pharmacol. 1993, 45, 375.
For orientation: Cyclic AMP is a second messenger, typically raised through Gs and lowered through Gi signalling.

The mark [2] stands for this setting: read-out: Inhibition of 3H-5-CT binding IC50, cloned human 5-HT1A receptors expressed in transfected HeLa cells (HA7), cell homogenate, 15 minutes at 37° C., pH 7.7.
The mark [3] stands for this setting: cloned human 5-HT1A receptors expressed in transfected HeLa cells (HA7), cell homogenate, 15 minutes at 37° C., pH 7.7.

In general, IC50 refers to the point on the concentration scale where inhibition reaches its midpoint. Turning to “3-[2-[4-(1,4-Benzodioxan-5-yl)piperazin-1-yl]ethyl]-5-methyl-1H-indole hemifumarate [Compound 1j]”, the IC50 at human 5-HT1A receptors (setting [2]) is 14 nM; in data set [1], 3.5 nM; on cloned 5-HT1A receptors, 980 nM.
Take “3-[2-[4-(1,4-Benzodioxan-5-yl)piperazin-1-yl]ethyl]-6-methyl-1H-indole hemifumarate [Compound 1k]”: the IC50 at human 5-HT1A receptors (setting [2]) was 2 nM; in data set [1], 18 nM; on cloned 5-HT1A receptors it was 580 nM.
Turning to `Clc1ccc2[nH]cc(CCN3CCN(c4cccc5c4OCCO5)CC3)c2c1` [Compound 1a, 3-[2-[4-(1,4-Benzodioxan-5-yl)Piperazin-1-yl]Ethyl]-5-Chloro-1H-Indole Oxalate], the IC50 at human 5-HT1A receptors was 17 nM; in data set [1], 5 nM; against cloned 5-HT1A receptors it was 2900 nM.
Broadly, the melting point is the temperature of the solid-liquid transition. In turn, `Brc1ccc2[nH]cc(CCN3CCN(c4cccc5c4OCCO5)CC3)c2c1.O=C(O)C(=O)O` [Compound 1b, 3-[2-[4-(1,4-Benzodioxan-5-yl)piperazin-1-yl]ethyl]-5-bromo-1H-indole oxalate] returned a melting point of 236 to 240 °C. This compound also had an IC50 at human 5-HT1A receptors of 7.2 nM. In data set [1], the IC50 was 2.8 nM. Further, on cloned 5-HT1A receptors, half-maximal inhibition (IC50) required 5000 nM.
`Clc1cccc2[nH]cc(CCN3CCN(c4cccc5c4OCCO5)CC3)c12.O=C(O)C(=O)O` [Compound 1e, 3-[2-[4-(1,4-Benzodioxan-5-yl)piperazin-1-yl]ethyl]-4-chloro-1H-indole oxalate] gave a melting point of 210 to 218 °C. Moreover, the IC50 at human 5-HT1A receptors is 11 nM. Besides, the IC50 in data set [1] stood at 0.25 nM. At cloned 5-HT1A receptors, this compound had an IC50 of 2400 nM.
For `CC1(C)Cc2cccc(C3CCN(CCc4c[nH]c5cc(Cl)ccc45)CC3)c2O1` [Compound 1f, 6-Chloro-3-[2-[4-(2,2, -dimethyl-2,3-dihydrobenzofuran-7-yl)piperidin-1-yl]ethyl]-1H-indole oxalate], the IC50 was 6.1 nM at human 5-HT1A receptors, 5.9 nM in data set [1] and 1800 nM against cloned 5-HT1A receptors.
Regarding `CC1(C)Cc2cccc(C3=CCN(CCc4c[nH]c5cc(Cl)ccc45)CC3)c2O1` [Compound 1g, 6-Chloro-3-[2-[4-(2,2,-dimethyl-2,3,-dihydrohydrobenzofuran-7-yl)-1,2,3,6-tetrahydro-1-pyridyl]ethyl]-1H-indole oxalate], the IC50 on human 5-HT1A receptors was found to be 2.8 nM; in data set [1], 3.8 nM; at cloned 5-HT1A receptors it was 1800 nM.
Compound `Fc1ccc2[nH]cc(CCN3CCN(c4cccc5c4OCCO5)CC3)c2c1.O=C(O)C(=O)O` [Compound 1h, 3-[2-[4-(1,4-Benzodioxan-5-yl)piperazin-1-yl]ethyl]-5-fluoro-1H-indole oxalate] yielded a melting point of 224 to 226 °C. This compound had an IC50 at human 5-HT1A receptors of 4.6 nM. Further, the IC50 in data set [1] was found to be 1.7 nM. Also, the IC50 at cloned 5-HT1A receptors is 280 nM.
Regarding `COc1ccc2[nH]cc(CCN3CCN(c4cccc5c4OCCO5)CC3)c2c1` [Compound 1i, 3-[2-[4-(1,4-Benzodioxan-5-yl)piperazin-1-y]ethyl]-5-methoxy-1H-indole hemioxalate], the IC50 on human 5-HT1A receptors turned out to be 6.9 nM; in data set [1], 6.8 nM; at cloned 5-HT1A receptors it was 620 nM.
Compound `Clc1ccc2[nH]cc(CCN3CCN(c4cccc5c4OCC5)CC3)c2c1.O=C(O)C(=O)O` [Compound 1n, 5-Chloro-3-[2-[4-(2,3-dihydrobenzofuran-7-yl)piperazin-1-yl]ethyl]-1H-indole oxalate] gave a melting point of 134 to 138 °C. The IC50 on human 5-HT1A receptors is 8.2 nM. The IC50 in data set [1] is 2.1 nM. Also, on cloned 5-HT1A receptors, it took 1900 nM to reach half-maximal inhibition (IC50).
`Clc1ccc2c(CCN3CC=C(c4cccc5c4OCCO5)CC3)c[nH]c2c1.O=C(O)C(=O)O` [Compound 1v, 3-[2-[4-(1,4-Benzodioxan-5-yl)-1,2,3,6-tetrahydropyridin-1-yl]ethyl]-6-chloro-1H-indole oxalate]: the melting point fell in the range of 240 to 247 °C. Moreover, at human 5-HT1A receptors, the IC50 turned out to be 0.81 nM. Further, the IC50 in data set [1] was determined as 0.85 nM. Besides, the IC50 against cloned 5-HT1A receptors stood at 3300 nM.
As to `c1cc2c(c(N3CCN(CCc4c[nH]c5ccccc45)CC3)c1)OCCO2` [Compound 2a, 3-[2-[4-(1,4-Benzodioxan-5-yl)Piperazin-1-yl]Ethyl]-1H-Indole Hemifumarate], the figures for the IC50 (at human 5-HT1A receptors (setting [2]); in data set [1]; against cloned 5-HT1A receptors) were 2.9 nM, 3.5 nM and 160 nM, respectively.
Take `CC(=O)N1CC(CCN2CCN(c3cccc4c3OCCO4)CC2)c2ccccc21` (centres unmarked) [Compound 2b]: the melting point is 119 to 120 °C. At human 5-HT1A receptors (setting [3]), this compound yielded an IC50 of 13 nM. In data set [1], the IC50 is 12 nM. The compound also registered an IC50 at cloned 5-HT1A receptors of 250 nM.
For `CC1(C)CCc2cc(Cl)cc(N3CCN(CCc4c[nH]c5cc(Cl)ccc45)CC3)c2O1.O=C(O)/C=C/C(=O)O` [Compound 3d, 6-Chloro-3-[2-[4-(6-chloro-2,2-dimethyl-3,4-dihydro-2H-1-benzopyran-8-yl)piperazin-1yl]ethyl]-1H-indole fumarate], the melting point lay within 224 to 225 °C. This compound also displayed an IC50 at human 5-HT1A receptors of 21 nM. For the same compound, the IC50 in data set [1] came out at 15 nM. Further, half-maximal inhibition at cloned 5-HT1A receptors (IC50) was put at 2300 nM.
With `Clc1ccc2c(c1)NCC2CCN1CCN(c2cccc3c2OCCO3)CC1.O=C(O)C(=O)O` (centres unmarked) [Compound 4d, 3-[2-[4-(1,4-Benzodioxan-5-yl)piperazin-1-yl]ethyl]-6-chloro-2,3-dihydro-1H-indole oxalate], the melting point is 185 to 188 °C. Also, the IC50 on human 5-HT1A receptors (setting [3]) came to 14 nM. Also, the IC50 in data set [1] turned out to be 4.3 nM. The same compound displayed an IC50 against cloned 5-HT1A receptors of 890 nM.
